Laboratory results from patent US8153791B2, “Substituted pyrimidinyl oxime kinase inhibitors” (Janssen Pharmaceutica N.V., priority 2005, dated 2012).

Key:
HER-2 = target: T1, HER-2 (Homo sapiens, UniProt P04626); test: HER-2 Kinase Assay; format: biochemical; conditions: for IC50: read-out: HER2 IC50;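 as to all read-outs here: HER2 kinase reaction read by scintillation counting, inhibition scaled between maximum and minimum signals set on each plate, IC50 from inhibition against log concentration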
T1 construct: purchased Proqinase (Freiburg, Germany)
T1 sequence (P04626 679-1255): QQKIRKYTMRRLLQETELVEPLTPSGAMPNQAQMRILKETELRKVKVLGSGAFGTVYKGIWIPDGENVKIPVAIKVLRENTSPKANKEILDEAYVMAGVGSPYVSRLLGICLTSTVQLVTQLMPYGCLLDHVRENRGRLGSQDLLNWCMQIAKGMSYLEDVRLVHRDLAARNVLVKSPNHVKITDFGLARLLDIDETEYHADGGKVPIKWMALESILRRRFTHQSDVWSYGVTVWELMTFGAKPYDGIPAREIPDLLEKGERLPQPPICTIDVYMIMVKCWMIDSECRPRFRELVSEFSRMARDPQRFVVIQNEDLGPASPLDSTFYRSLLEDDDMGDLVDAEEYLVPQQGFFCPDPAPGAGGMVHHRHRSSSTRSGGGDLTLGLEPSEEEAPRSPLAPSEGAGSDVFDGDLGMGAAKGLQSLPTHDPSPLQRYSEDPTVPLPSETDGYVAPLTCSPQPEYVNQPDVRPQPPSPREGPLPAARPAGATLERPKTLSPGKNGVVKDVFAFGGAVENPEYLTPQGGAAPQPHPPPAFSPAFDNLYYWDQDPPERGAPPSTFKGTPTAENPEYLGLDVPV

EGFR = target: T2, EGFR (Homo sapiens, UniProt P00533); test: EGFR Kinase Assay; format: biochemical; conditions: for inhibition at 2 µM: test concentration of 2 μM;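 as to all read-outs here: recombinant GST-tagged EGFR expressed in Sf9 cells, phosphorylating biotinylated polyGluTyr with γ-33P ATP on Streptavidin Flashplates, 1 h at 30 °C, scintillation counting, inhibition relative to plate maximum and minimum signals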
T2 construct: The intracellular portion of EGFR started at nucleotide 2189 (corresponding to amino acid 667) and ended at the termination codon; made in house; host or cells: Sf9 insect cells (baculovirus)
T2 sequence (P00533 669-1210 limits assumed): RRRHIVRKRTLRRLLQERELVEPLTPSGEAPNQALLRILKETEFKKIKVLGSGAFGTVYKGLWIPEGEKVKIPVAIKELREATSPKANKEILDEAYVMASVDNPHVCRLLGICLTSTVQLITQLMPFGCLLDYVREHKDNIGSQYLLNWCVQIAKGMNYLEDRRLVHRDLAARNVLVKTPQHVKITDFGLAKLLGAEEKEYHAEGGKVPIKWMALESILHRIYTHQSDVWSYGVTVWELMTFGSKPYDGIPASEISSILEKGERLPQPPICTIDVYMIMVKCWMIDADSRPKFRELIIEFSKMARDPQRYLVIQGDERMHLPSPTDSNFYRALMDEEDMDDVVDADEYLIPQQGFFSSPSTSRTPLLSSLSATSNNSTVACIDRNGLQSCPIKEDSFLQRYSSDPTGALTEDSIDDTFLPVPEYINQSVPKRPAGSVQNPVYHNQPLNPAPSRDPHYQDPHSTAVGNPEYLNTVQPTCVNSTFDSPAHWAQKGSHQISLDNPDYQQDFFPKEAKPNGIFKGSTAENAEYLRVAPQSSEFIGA

[1] = test system: HeLa cervical adenocarcinoma; test: In vitro cell proliferation inhibition, HeLa; format: cell-based; conditions: Homo sapiens; HeLa cell line; ATP-Lite method or C14 thymidine method; read-out: HeLa IC50
Text: The ability of a test compound to inhibit unregulated in vitro cell proliferation may be determined by measuring incorporation of ^14C-labelled thymidine into newly synthesized DNA within cell lines derived from carcinomas originating from several tissues. Accordingly, the effect of a test compound on proliferation of cells with a variety of phenotypes may be determined.
Carcinoma cell lines used include the HeLa cervical adenocarcinoma from the American Type Culture Collection (ATCC Cat. #CCL2), SK-OV-3 ovarian carcinoma (ATCC Cat. #HTB-77), MCF-7 breast carcinoma (ATCC Cat. #HTB-22), BT474 breast carcinoma (ATCC Cat. #HTB-20), SKBR3 breast carcinoma (ATCC Cat. #HTB-30), A431 epidermoid carcinoma (ATCC Cat. #CRL-1555) and NCI-N87 gastric carcinoma (ATCC Cat. #CRL-5822).
The carcinoma cells are trypsinized and counted. The cells (3000-8000 count) are added to each well of a 96-well CytoStar tissue culture treated scintillating microplate (Amersham #RPNQ0160) in complete medium (100 μL) and the plate is then incubated in complete medium for 24 hrs at 37° C. in an inert atmosphere containing 5% CO2.
Test compound (1 μL) in 100% DMSO is added to the plate test-wells with DMSO only added to control-wells. The plate is incubated in complete medium for a second 24 hr period at 37° C. in an atmosphere containing 5% CO2.
An aliquot of a solution of Methyl ^14C-thymidine (56 mC/mmol) (NEN #NEC568 or Amersham #CFA532) and complete medium (20 μL to provide 0.2 μCi/well) is then added to each well and the plate is incubated for a third 24 hr period at 37° C. in an atmosphere containing 5% CO2.
The plate contents are then discarded, the plate is washed twice with PBS (200 μL) and then PBS (200 μL) is added to each well. The plate is sealed and the degree of methyl ^14C-thymidine incorporation is quantified on a Packard Top Count.
Cell proliferation of the Hela cell line was measured using the ATP-Lite method as described in the ATP Lite Kit (Perkin-Elmer Kit Number 6106941) or the C^14 method as described above. Cell proliferation of the other cell lines was measured using the C^14 method.
The term “NT” means that the compound indicated was not tested in a particular cell line. The lack of such testing is not intended to imply a belief that the compound is not otherwise active in a particular cell line or any other cell line not tested.

IC50 (HER-2) [nM] | IC50 (EGFR) [nM] | IC50 [1] [nM] | Compound | other results
50 | 100 | – | CO/N=C/c1c(N)ncnc1Nc1ccc(Oc2cccnc2)c(Cl)c1 [Cpd 38, (5E)-4-amino-6-[3-chloro-4-(pyridin-3-yloxy)-phenylamino]-pyrimidine-5-carbaldehyde O-methyl-oxime] | –
1000 | 1200 | – | CO/N=C/c1c(N)ncnc1Nc1ccc(OC)c(Cl)c1 [Cpd 63] | –
– | 300 | 100000 | CO/N=C/c1c(N)ncnc1Nc1ccc(Cl)cc1F [Cpd 80] | –
– | – | 10000 | CO/N=C\c1c(N)ncnc1Nc1ccc(Cl)cc1F [Cpd 81] | –
– | 200 | 100000 | CO/N=C/c1c(N)ncnc1Nc1ccc(Br)cc1F [Cpd 82] | –
– | – | 3600 | CO/N=C\c1c(N)ncnc1Nc1ccc(Br)cc1F [Cpd 83] | –
– | – | 10000 | CO/N=C\c1c(N)ncnc1Nc1cc(O)c(Cl)cc1F [Cpd 90] | –
1000 | – | 100000 | CO/N=C/c1c(N)ncnc1Nc1ccc(OCc2cc(F)cc(F)c2)c(Cl)c1 [Cpd 97, (5E)-4-amino-6-[3-chloro-4-(3,5-difluoro-benzyloxy)-phenylamino]-pyrimidine-5-carbaldehyde O-methyl-oxime] | –
– | – | 10000 | CO/N=C/c1c(N)ncnc1Nc1ccc(NC(=O)c2ccccc2)cc1 [Cpd 104] | –
300 | 100 | – | Nc1ncnc(Nc2ccc(Oc3ccccc3)cc2)c1/C=N/O [Cpd 111, (5E)-4-amino-6-(4-phenoxy-phenylamino)-pyrimidine-5-carbaldehyde oxime] | –
7920 | – | – | CON=Cc1c(N)ncnc1Nc1ccc(OC)cc1 [Cpd 120, 4-amino-6-(4-methoxy-phenylamino)-pyrimidine-5-carbaldehyde O-methyl-oxime] | inhibition at 2 µM (EGFR): 15%
> 100000 | – | – | CON=Cc1c(N)ncnc1NCc1ccc(OC)c(OC)c1 [Cpd 122, 4-amino-6-(3,4-dimethoxy-benzylamino)-pyrimidine-5-carbaldehyde O-methyl-oxime] | inhibition at 2 µM (EGFR): 6%
> 100000 | – | – | CON=Cc1c(N)ncnc1NCc1ccc(Oc2ccccc2)cc1 [Cpd 123, 4-amino-6-(4-phenoxy-benzylamino)-pyrimidine-5-carbaldehyde O-methyl-oxime] | inhibition at 2 µM (EGFR): 7%
2460 | – | – | CON=Cc1c(N)ncnc1NC1CCc2ccccc21 (stereo not shown) [Cpd 124, 4-amino-6-(indan-1-ylamino)-pyrimidine-5-carbaldehyde O-methyl-oxime] | inhibition at 2 µM (EGFR): 26%
1820 | – | – | CON=Cc1c(N)ncnc1Nc1ccc(Oc2ccccc2)nc1 [Cpd 128, 4-amino-6-(6-phenoxy-pyridin-3-ylamino)-pyrimidine-5-carbaldehyde O-methyl-oxime] | inhibition at 2 µM (EGFR): 45%
> 100000 | – | – | CON=Cc1c(N)ncnc1Nc1ccc(N2CCOCC2)nc1 [Cpd 129, 4-amino-6-(6-morpholin-4-yl-pyridin-3-ylamino)-pyrimidine-5-carbaldehyde O-methyl-oxime] | inhibition at 2 µM (EGFR): 1%

Further lines, the molecule ahead of its results:

Compound | IC50 (HER-2) [nM] | IC50 (EGFR) [nM] | IC50 [1] [nM] | other results
CCNc1ncnc(Nc2ccc3c(cnn3Cc3cccc(F)c3)c2)c1/C=N/OCC [Cpd 41, (5E)-4-ethylamino-6-[1-(3-fluoro-benzyl)-1H-indazol-5-ylamino]-pyrimidine-5-carbaldehyde O-ethyl-oxime] | 3600 | 400 | – | –
CCNc1ncnc(Nc2ccc(OCc3cccc(F)c3)c(Cl)c2)c1/C=N/OCC [Cpd 43, (5E)-4-[3-chloro-4-(3-fluoro-benzyloxy)-phenylamino]-6-ethylamino-pyrimidine-5-carbaldehyde O-ethyl-oxime] | 10400 | 1400 | – | –
COc1ccc(CO/N=C/c2c(N)ncnc2Nc2ccc3c(cnn3Cc3cccc(F)c3)c2)cc1 [Cpd 44, (5E)-4-amino-6-[1-(3-fluoro-benzyl)-1H-indazol-5-ylamino]-pyrimidine-5-carbaldehyde O-(4-methoxy-benzyl)-oxime] | 1600 | 70 | – | –
CCO/N=C/c1c(N)ncnc1Nc1ccc2c(cnn2Cc2ccccc2)c1 [Cpd 49, (5E)-4-amino-6-(1-benzyl-1H-indazol-5-ylamino)-pyrimidine-5-carbaldehyde O-ethyl-oxime] | 10 | 30 | – | –
CCO/N=C/c1c(N)ncnc1Nc1ccc2c(cnn2Cc2cccc(C#N)c2)c1 [Cpd 51, 3-{5-[6-amino-(5E)-5-(ethoxyimino-methyl)-pyrimidin-4-ylamino]-indazol-1-ylmethyl}-benzonitrile] | 40 | 40 | – | –
CCO/N=C/c1c(N)ncnc1Nc1ccc2c(cnn2Cc2cccc(Cl)c2)c1 [Cpd 55, (5E)-4-amino-6-[1-(3-chloro-benzyl)-1H-indazol-5-ylamino]-pyrimidine-5-carbaldehyde O-ethyl-oxime] | 30 | 40 | – | –
Nc1ncnc(Nc2ccc3c(cnn3Cc3cccc(F)c3)c2)c1/C=N/Oc1ccccc1 [Cpd 65, (5E)-4-amino-6-[1-(3-fluoro-benzyl)-1H-indazol-5-ylamino]-pyrimidine-5-carbaldehyde O-phenyl-oxime] | 200 | 40 | – | –
CCO/N=C/c1c(N)ncnc1Nc1ccc2c(cnn2Cc2ccc(F)cc2)c1 [Cpd 67, (5E)-4-amino-6-[1-(4-fluoro-benzyl)-1H-indazol-5-ylamino]-pyrimidine-5-carbaldehyde O-ethyl-oxime] | 200 | 100 | – | –
Nc1ncnc(Nc2ccc3c(cnn3Cc3cccc(F)c3)c2)c1/C=N\OCCCO [Cpd 69, (5Z)-4-amino-6-[1-(3-fluoro-benzyl)-1H-indazol-5-ylamino]-pyrimidine-5-carbaldehyde O-(3-hydroxy-propyl)-oxime] | 4 | 10 | – | –
COCCO/N=C/c1c(N)ncnc1Nc1ccc(OCc2ccccc2)c(Cl)c1 [Cpd 71, (5E)-4-amino-6-(4-benzyloxy-3-chloro-phenylamino)-pyrimidine-5-carbaldehyde O-(2-methoxy-ethyl)-oxime] | 50 | 10 | – | –
Nc1ncnc(Nc2ccc(OCc3ccccc3)c(Cl)c2)c1/C=N/O [Cpd 77, (5E)-4-amino-6-(4-benzyloxy-3-chloro-phenylamino)-pyrimidine-5-carbaldehyde oxime] | 100 | 20 | 10000 | –
Nc1ncnc(Nc2ccc(OCc3cccc(F)c3)c(Cl)c2)c1/C=N/O [Cpd 79, (5E)-4-amino-6-[3-chloro-4-(3-fluoro-benzyloxy)-phenylamino]-pyrimidine-5-carbaldehyde oxime] | 10 | 8 | 100000 | –
Nc1ncnc(Nc2ccc3c(cnn3Cc3cccc(F)c3)c2)c1/C=N/O [Cpd 84, (5E)-4-amino-6-[1-(3-fluoro-benzyl)-1H-indazol-5-ylamino]-pyrimidine-5-carbaldehyde oxime] | – | – | 4900 | –
CO/N=C/c1c(NOC)ncnc1Nc1ccc(Br)cc1F [Cpd 86] | – | – | 100000 | –
CO/N=C/c1c(N)ncnc1Nc1cc(O)c(Cl)cc1F [Cpd 89] | – | – | 10000 | –
C[C@H](Nc1ncnc(N)c1/C=N/O)c1ccccc1 [Cpd 100, (5E)-4-amino-6-[(1S)-1-phenyl-ethylamino]-pyrimidine-5-carbaldehyde oxime] | – | 20 | 10000 | –
C[C@H](Nc1ncnc(N)c1/C=N/OCCN1CCOCC1)c1ccccc1 [Cpd 103] | – | – | 10000 | –
Nc1ncnc(Nc2ccc(NC(=O)c3ccccc3)cc2)c1/C=N/O [Cpd 105] | – | – | 100000 | –
C[C@H](Nc1ncnc(N)c1/C=N/OCCN1CCCCC1)c1ccccc1 [Cpd 106] | – | – | 10000 | –
Nc1ncnc(Nc2ccc(NC(=O)c3ccccc3)cc2)c1/C=N/OCCN1CCOCC1 [Cpd 107] | – | – | 100000 | –
Nc1ncnc(Nc2ccc(Oc3ccccc3)cc2)c1/C=N/OCCN1CCOCC1 [Cpd 109] | – | – | 100000 | –
CO/N=C/c1c(N)ncnc1Nc1cnc(NC(=O)c2ccccc2)nc1 [Cpd 110] | – | – | 33100 | –
CON=Cc1c(N)ncnc1NC1CCCc2ccccc21 (stereo not shown) [Cpd 125, 4-amino-6-(1,2,3,4-tetrahydro-naphthalen-1-ylamino)-pyrimidine-5-carbaldehyde O-methyl-oxime] | – | – | – | inhibition at 1 µM (HER-2; test concentration of 1 μM, read-out: HER2 % inhibition): 25%; inhibition at 2 µM (EGFR): 42%
